Drawing on ChEMBL document CHEMBL1153107, “A highly atom economic, chemo-, regio- and stereoselective synthesis and evaluation of spiro-pyrrolothiazoles as antitubercular agents” (2010), this text covers MIC for 10 molecules.

Each structure is given as a SMILES string. Values after ≈ are worked out from the molar mass of the structure shown.

The experiment deals with Mycobacterium tuberculosis. Nature of the experiment: Antitubercular activity against multidrug-resistant Mycobacterium tuberculosis. The class given is functional.
Usually MIC stands for the lowest concentration that inhibits growth of the organism. The low end stands for a more susceptible organism, the high end for a less susceptible organism. `CN1C/C(=C\c2ccc(Cl)cc2Cl)C(=O)[C@]2(C1)[C@H](c1ccc(Cl)cc1Cl)[C@@H]1CSCN1[C@@]21C(=O)Nc2ccc(Cl)cc21` had an MIC of 2.4 µM (≈ 1.63 µg/mL). Molecule `CN1C/C(=C\c2ccc(Cl)cc2Cl)C(=O)[C@]2(C1)[C@H](c1ccc(Cl)cc1Cl)[C@@H]1CSCN1[C@@]21C(=O)Nc2ccc([N+](=O)[O-])cc21` returned an MIC of 0.6 µM (≈ 0.414 µg/mL). For `CN1C/C(=C\c2ccc(F)cc2)C(=O)[C@]2(C1)[C@H](c1ccc(F)cc1)[C@@H]1CSCN1[C@@]21C(=O)Nc2ccc([N+](=O)[O-])cc21` the value was 1.4 µM (≈ 0.824 µg/mL); for `CN1C/C(=C\c2ccc(Br)cc2)C(=O)[C@]2(C1)[C@H](c1ccc(Br)cc1)[C@@H]1CSCN1[C@@]21C(=O)Nc2ccc([N+](=O)[O-])cc21`, 2.3 µM (≈ 1.63 µg/mL); for `CN1C/C(=C\c2ccccc2Cl)C(=O)[C@]2(C1)[C@H](c1ccccc1Cl)[C@@H]1CSCN1[C@@]21C(=O)Nc2ccc([N+](=O)[O-])cc21`, 2.6 µM (≈ 1.62 µg/mL). The value for `CN1C/C(=C\c2ccc(F)cc2)C(=O)[C@]2(C1)[C@H](c1ccc(F)cc1)[C@@H]1CSCN1[C@@]21C(=O)Nc2ccc(Cl)cc21` was 2.8 µM (≈ 1.62 µg/mL). In the case of `CC[C@@H](CO)NCCN[C@@H](CC)CO` [ETHAMBUTOL], the MIC was determined as 61.2 µM (≈ 12.5 µg/mL). As to `NNC(=O)c1ccncc1` [ISONIAZID], the MIC was 11.4 µM (≈ 1.56 µg/mL). In the case of `NC(=O)c1cnccn1` [PYRAZINAMIDE], the MIC is 406 µM (≈ 50 µg/mL). The molecule `CO[C@H]1/C=C/O[C@@]2(C)Oc3c(C)c(O)c4c(O)c(c(/C=N/N5CCN(C)CC5)c(O)c4c3C2=O)NC(=O)/C(C)=C\C=C\[C@H](C)[C@H](O)[C@@H](C)[C@@H](O)[C@@H](C)[C@H](OC(C)=O)[C@@H]1C` [RIFAMPIN] showed a minimal inhibitory concentration (MIC) of 3.8 µM (≈ 3.13 µg/mL).
